Like-named read-outs stand apart in the source and are kept apart here.
Experiments:
[1] = type: physicochemical; conditions: 0.4-0.5 mm zirconium silicate
Protocol: (§1) The laboratory-sized vertical mill was provided by C B Mills, model# L-3-J. The mill has a 2 liter capacity and is jacketed for cooling. Unless otherwise specified, ambient water was cycled through the mill cooling jacket during operation. The internal dimensions are 3.9″ diameter by 9.1″ height. The mill uses a standard 3×3″ disk agitator (mild steel) on a stainless steel shaft, and it operates at 2,620 rpm.
(§2) The media used in this Example was 0.4-0.5 mm zirconium silicate beads supplied by C B Mills. All particle size determinations were made with a Sedigraph™ 5100T manufactured by Micromeritics, which uses x-ray detection and bases calculations of size on Stokes' Law.
The total batch weight was about 600 g.

[2] = Wet milling chlorothalonil with 0.5-0.6 mm cerium-doped zirconium oxide beads, particle size by Sedigraph; type: physicochemical
Protocol: as §1, §2
The same mill and conditions were used in this experiment as in experiment 1. However, the grinding media was 0.5-0.6 mm cerium-doped zirconium oxide beads obtained from CB Mills. The density of the cerium doped zirconium oxide is ˜6.0 g/cm^3. […] The total batch weight was about 600 g.

[3] = at 170 C; cited from earlier work
[4] = cited from earlier work
[5] = Milling Time 0 Mins., 0.5-0.6 mm cerium-doped zirconium oxide
[6] = Milling Time 90 Mins., 0.5-0.6 mm cerium-doped zirconium oxide
[7] = Milling Time 240 Mins., 0.5-0.6 mm cerium-doped zirconium oxide
[8] = obtainable in 6 hours, 0.5 mm zirconia milling media
[9] = 0.1 cm zirconia, 10 minutes, US 2004/0063847, 2003/0040569

In the case of `N#Cc1c(Cl)c(Cl)c(Cl)c(C#N)c1Cl` [chlorothalonil, 2,4,5,6-tetrachloro-1,3-dicyanobenzene], the “Volume % With Diameter Greater Than 2 μm” value ([1]; Milling Time 0 Mins.) is reported as 95 Volume %, the “Volume % With Diameter Greater Than 5 μm” value ([1]; Milling Time 0 Mins.) is reported as 48 Volume % and the “Volume % With Diameter Greater Than 10 μm” value ([1]; Milling Time 0 Mins.) is reported as 10 Volume %. The d50 ([1]; Milling Time 0 Mins.) was 4.9 μm, the “Volume % With Diameter Greater Than 1 μm” value ([1]; Milling Time 30 Mins.) was 68 Volume % and the “Volume % With Diameter Greater Than 2 μm” value ([1]; Milling Time 30 Mins.) was 21 Volume %. For the same compound, the “Volume % With Diameter Greater Than 5 μm” value ([1]; Milling Time 30 Mins.) was 4 Volume %, the “Volume % With Diameter Greater Than 10 μm” value ([1]; Milling Time 30 Mins.) was 0 Volume % and the d50 ([1]; Milling Time 30 Mins.) was 1.3 μm. For the same compound, the “Volume % With Diameter Greater Than 1 μm” value ([1]; Milling Time 60 Mins.) was 50 Volume %, the “Volume % With Diameter Greater Than 2 μm” value ([1]; Milling Time 60 Mins.) was 11 Volume % and the “Volume % With Diameter Greater Than 5 μm” value ([1]; Milling Time 60 Mins.) was 2 Volume %. The “Volume % With Diameter Greater Than 10 μm” value ([1]; Milling Time 60 Mins.) was 4 Volume %, the d50 ([1]; Milling Time 60 Mins.) was 1.0 μm and the “Volume % With Diameter Greater Than 1 μm” value ([1]; Milling Time 90 Mins.) was 94 Volume %. For the same compound, the “Volume % With Diameter Greater Than 2 μm” value ([1]; Milling Time 90 Mins.) was 22 Volume %, the “Volume % With Diameter Greater Than 5 μm” value ([1]; Milling Time 90 Mins.) was 23 Volume % and the “Volume % With Diameter Greater Than 10 μm” value ([1]; Milling Time 90 Mins.) was 18 Volume %. For the same compound, the d50 ([1]; Milling Time 90 Mins.) was 1.4 μm, the “Volume % With Diameter Greater Than 2 μm” value ([1]; Milling Time 120 Mins.) was 4 Volume % and the “Volume % With Diameter Greater Than 5 μm” value ([1]; Milling Time 120 Mins.) was 0 Volume %. The “Volume % With Diameter Greater Than 10 μm” value ([1]; Milling Time 120 Mins.) was 2 Volume %, the d50 ([1]; Milling Time 120 Mins.) was 1.03 μm and the “Volume % With Diameter Greater Than 1 μm” value ([1]; Milling Time 150 Mins.) was 58 Volume %. For the same compound, the “Volume % With Diameter Greater Than 2 μm” value ([1]; Milling Time 150 Mins.) was 6 Volume %, the “Volume % With Diameter Greater Than 5 μm” value ([1]; Milling Time 150 Mins.) was 2 Volume % and the “Volume % With Diameter Greater Than 10 μm” value ([1]; Milling Time 150 Mins.) was 0 Volume %. The d50 ([1]; Milling Time 150 Mins.) was 1.12 μm, the “Volume % With Diameter Greater Than 1 μm” value ([1]; Milling Time 180 Mins.) was 53 Volume % and the “Volume % With Diameter Greater Than 2 μm” value ([1]; Milling Time 180 Mins.) was 7 Volume %. For the same compound, the “Volume % With Diameter Greater Than 5 μm” value ([1]; Milling Time 180 Mins.) was 2 Volume %, the “Volume % With Diameter Greater Than 10 μm” value ([1]; Milling Time 180 Mins.) was 2 Volume % and the d50 ([1]; Milling Time 180 Mins.) was 1.07 μm. For the same compound, the “Volume % With Diameter Greater Than 1 μm” value ([1]; Milling Time 270 Mins.) was 54 Volume %, the “Volume % With Diameter Greater Than 2 μm” value ([1]; Milling Time 270 Mins.) was 8 Volume % and the “Volume % With Diameter Greater Than 5 μm” value ([1]; Milling Time 270 Mins.) was 0 Volume %. For the same compound, the “Volume % With Diameter Greater Than 10 μm” value ([1]; Milling Time 270 Mins.) was 2 Volume %, the d50 ([1]; Milling Time 270 Mins.) was 1.09 μm and the “Volume % With Diameter Greater Than 1 μm” value ([1]; Milling Time 450 Mins.) was 56 Volume %. The “Volume % With Diameter Greater Than 2 μm” value ([1]; Milling Time 450 Mins.) was 21 Volume %, the “Volume % With Diameter Greater Than 5 μm” value ([1]; Milling Time 450 Mins.) was 8 Volume % and the “Volume % With Diameter Greater Than 10 μm” value ([1]; Milling Time 450 Mins.) was 12 Volume %. For the same compound, the d50 ([1]; Milling Time 450 Mins.) was 1.15 μm, the “Volume % With Diameter Greater Than 1 μm” value [2, 5] was 92 Volume % and the “Volume % With Diameter Greater Than 2 μm” value [2, 5] was 77 Volume %. The “Volume % With Diameter Greater Than 5 μm” value [2, 5] was 30 Volume %, the “Volume % With Diameter Greater Than 10 μm” value [2, 5] was 8 Volume % and the d50 [2, 5] was 3.44 μm. The “Volume % With Diameter Greater Than 0.4 μm” value [2, 6] was 22 Volume %, the “Volume % With Diameter Greater Than 1 μm” value [2, 6] was 3 Volume % and the “Volume % With Diameter Greater Than 2 μm” value [2, 6] was 3 Volume %. For the same compound, the “Volume % With Diameter Greater Than 5 μm” value [2, 6] was 3 Volume %, the “Volume % With Diameter Greater Than 10 μm” value [2, 6] was 3 Volume % and the “Volume % With Diameter Greater Than 0.2 μm” value [2, 7] was 51 Volume %. The “Volume % With Diameter Greater Than 0.4 μm” value [2, 7] was 3 Volume %, the “Volume % With Diameter Greater Than 1 μm” value [2, 7] was 3 Volume % and the “Volume % With Diameter Greater Than 2 μm” value [2, 7] was 2 Volume %. The “Volume % With Diameter Greater Than 5 μm” value [2, 7] was 1 Volume %, the “Volume % With Diameter Greater Than 10 μm” value [2, 7] was 0 Volume % and the d50 [2, 7] was 0.21 μm. The “d95 within a factor of the d50” value ([2]; milled chlorothalonil of the example) was ≤ 2, the d95 ([2]; obtainable in 90 minutes, 0.5 mm zirconia milling media) was “less than 1 micron” and the d50 [2, 8] was “less than 0.3 microns”. The d95 [2, 8] was “less than 0.4 microns”, the “increase in number of particles per unit of mass over the standard products, factor” value ([2]; product obtained after 90 minutes of milling (first statement)) was “more than 30” and the “increase in number of particles per unit of mass over the standard products, factor” value ([2]; product obtained after 90 minutes of milling (second statement)) was “more than 1000”. The volatility [3] was 9.2 mmHg, the “size below which 90% of the number of particles lie” value ([4]; 0.1 cm zirconium beads, 3000 rpm, 10 minutes, US 2004/0024099) was “below 0.5 microns” and the “mean / average particle diameter after milling with 2 mm glass beads” value ([4]; U.S. Pat. No. 5,360,783) was 2.3 microns. For the same compound, the “average particle size of the product” value ([4]; U.S. Pat. No. 5,667,795, 40% chlorothalonil, 5.6% zinc oxide, wet mill) was 3 microns.
For `CC1OC(C)OC(C)OC(C)O1` (stereo not drawn) [metaldehyde], the “diameter below which 90% of the particles lie” value [4, 9] is listed as “less than 2.5 microns” and the mean volume diameter [4, 9] is listed as “less than 1.5 microns”.

Reference: patent US20090143478A1, “Milled Submicron Organic Biocides With Narrow Particle Size Distribution, and Uses Thereof” (PhibroWood, LLC, priority 2004, published 2009)
